# Columns and labels:
# ATIII = ATIII (Homo sapiens, UniProt P01008); assay: Affinity for ATIII; assay type: binding
# [1] = Monitoring of the plasma concentration of 3 octasaccharides in beagle dogs after subcutaneous administration (plasma filtration + anion-exchange HPLC); assay type: in vivo, male dogs of the beagle breed; details: 0.5 mg/kg each
# Procedure: A plasma sample with a volume of between 100 and 1000 μl is withdrawn and, if appropriate, the internal standard is added to the latter.
# After homogenization, the resulting solution is introduced into a 30 kD Ultrafree 05 ultrafiltration cartridge (Millipore) rinsed beforehand with 250 μl of water by centrifuging at 10 000 rev/min for 5 minutes. The plasma is introduced into the upper part of the cartridge once or twice, if the amounts to be filtered are greater than 500 μl.
# The cartridge is centrifuged at 10 000 rev/min for between 1 and 2 hours and then the filtrate is withdrawn. If appropriate, the second part of the plasma to be filtered is introduced into the upper part of the cartridge and the latter is again centrifuged. The exact amount of plasma introduced will have been weighed. The cartridge is centrifuged until the protein residue in the upper part of the cartridge represents no more than approximately 10% of the initial part.
# The filtrate is withdrawn and 210 μl of 3M KCl per ml of plasma filtered are added to the concentrate.
# After homogenization, the cartridge is centrifuged at 10 000 rev/min for between 1 and 4 hours. The cartridge is centrifuged until the protein residue in the upper part of the cartridge represents no more than approximately 10% of the initial part.
# The second filtrate is withdrawn and 210 μl of 3M KCl per ml of plasma filtered are added a second time to the concentrate.
# The third filtrate is withdrawn and 250 μl of water per ml of plasma filtered are added.
# The filtrates are combined and diluted 5 fold in water, and the whole is injected directly in anion-exchange HPLC. Immediately before injection, the pH of the injected solution is adjusted to 3 by addition of 1N HCl.
# The filtered plasma is analyzed by anion-exchange HPLC.
# The columns used are IonPAc As11 columns (Dionex), with a length of 25 cm and an internal diameter of 2 mm. The detector used is a UV spectrophotometer equipped with an array of diodes.
# The whole of the […] is injected after adjustment of the pH to 3 by addition of N HCl. The flow rate chosen is 0.22 ml/min; the column temperature is 40° C.
# Elution is carried out in gradient mode. The two solutions used are:
# Solvent A: NaH2PO4 2.5 mM, brought to pH 2.9 by addition of H3PO4
# Solvent B: NaClO4 1N, NaH2PO4 2.5 mM, brought to pH 3.0 by addition of H3PO4
# The elution gradient is as follows:
# T=0 min: % B=3; T=40 min: % B=60; T=60 min: % B=80
# The evolution of a mixture of three octasaccharides in the blood of male dogs of the beagle breed is monitored. These 3 octasaccharides, symbolized ΔIIaIIsIsIs, ΔIsIIaIIsIs and ΔIIaIIsIsIs^1,6-anhydro, are the main affinity octasaccharides of the octasaccharide fractions of Lovenox®.
# The mixture is administered subcutaneously to 3 male dogs of the beagle breed at a target dose with regard to each of these 3 constituents of 0.5 mg/kg. The administration solution is a 0.9% NaCl solution of the mixture of the 3 octasaccharides at the target concentration of 0.5 mg/ml. Blood samples of 5 ml are withdrawn at the times 0, 0.25 h, 0.5 h, 1 h, 2 h, 4 h, 6 h, 8 h, 24 h, 30 h and 48 h after administration. The blood samples withdrawn are collected in tubes containing 400 μl of a CTAD (citrate, theophylline, adenosine, dipyridamole) mixture. After homogenization, the solution is centrifuged at 3000 g at 15° C. for 15 min. The plasma supernatant is recovered and stored at −20° C. until use.
# For the treatment of the plasma before HPLC injection, approximately 1 ml of plasma is withdrawn and weighed, to which 50 μl of a solution of the internal standard at a concentration of approximately 0.02 g/l are added.
# The internal standard is chosen so that it is structurally as close as possible to the products to be analyzed. Its structure is given below.
# The tetrasaccharide used makes it possible to correct the potentional influence of the variations in the extraction yield.
# The plasma is treated and analyzed by HPLC.
# [2] = Dog 1, 0 h after subcutaneous administration
# [3] = Dog 1, 0.25 h after subcutaneous administration
# [4] = Dog 1, 0.5 h after subcutaneous administration
# [5] = Dog 1, 1 h after subcutaneous administration
# [6] = Dog 1, 2 h after subcutaneous administration
# [7] = Dog 1, 4 h after subcutaneous administration
# [8] = Dog 1, 6 h after subcutaneous administration
# [9] = Dog 1, 8 h after subcutaneous administration
# [10] = Dog 1, 24 h after subcutaneous administration
# [11] = Dog 1, 30 h after subcutaneous administration
# [12] = Dog 1, 48 h after subcutaneous administration
# [13] = Dog 2, 0 h after subcutaneous administration
# [14] = Dog 2, 0.25 h after subcutaneous administration
# [15] = Dog 2, 0.5 h after subcutaneous administration
# [16] = Dog 2, 1 h after subcutaneous administration
# [17] = Dog 2, 2 h after subcutaneous administration
# [18] = Dog 2, 4 h after subcutaneous administration
# [19] = Dog 2, 6 h after subcutaneous administration
# [20] = Dog 2, 8 h after subcutaneous administration
# [21] = Dog 2, 24 h after subcutaneous administration
# [22] = Dog 2, 30 h after subcutaneous administration
# [23] = Dog 2, 48 h after subcutaneous administration
# [24] = Dog 3, 0 h after subcutaneous administration
# [25] = Dog 3, 0.25 h after subcutaneous administration
# [26] = Dog 3, 0.5 h after subcutaneous administration
# [27] = Dog 3, 1 h after subcutaneous administration
# [28] = Dog 3, 2 h after subcutaneous administration
# [29] = Dog 3, 4 h after subcutaneous administration
# [30] = Dog 3, 6 h after subcutaneous administration
# [31] = Dog 3, 8 h after subcutaneous administration
# [32] = Dog 3, 24 h after subcutaneous administration
# [33] = Dog 3, 30 h after subcutaneous administration
# [34] = Dog 3, 48 h after subcutaneous administration
# ATIII, sequence (P01008 33-464, species assumed): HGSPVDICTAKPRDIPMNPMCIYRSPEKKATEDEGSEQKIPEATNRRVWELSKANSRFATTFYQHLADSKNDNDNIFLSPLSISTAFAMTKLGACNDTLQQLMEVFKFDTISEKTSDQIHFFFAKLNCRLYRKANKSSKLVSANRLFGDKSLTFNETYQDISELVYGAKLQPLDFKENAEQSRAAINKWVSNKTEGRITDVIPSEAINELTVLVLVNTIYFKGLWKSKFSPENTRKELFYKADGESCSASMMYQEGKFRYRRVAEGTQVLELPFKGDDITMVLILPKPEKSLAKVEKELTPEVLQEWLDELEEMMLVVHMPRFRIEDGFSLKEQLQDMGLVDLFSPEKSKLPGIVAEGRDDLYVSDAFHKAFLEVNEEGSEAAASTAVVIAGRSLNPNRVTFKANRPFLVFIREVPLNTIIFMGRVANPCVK
SMILES,affinity for ATIII (ATIII),"plasma concentration [1, 2]","plasma concentration [1, 3]","plasma concentration [1, 4]","plasma concentration [1, 5]","plasma concentration [1, 6]","plasma concentration [1, 7]","plasma concentration [1, 8]","plasma concentration [1, 9]","plasma concentration [1, 10]","plasma concentration [1, 11]","plasma concentration [1, 12]","plasma concentration [1, 13]","plasma concentration [1, 14]","plasma concentration [1, 15]","plasma concentration [1, 16]","plasma concentration [1, 17]","plasma concentration [1, 18]","plasma concentration [1, 19]","plasma concentration [1, 20]",also measured
"CC(=O)N[C@H]1[C@@H](O[C@H]2[C@H](O)[C@@H](O)[C@H](O[C@H]3[C@H](OS(=O)(=O)O)[C@@H](NS(=O)(=O)O)[C@@H](O[C@H]4[C@H](O)[C@@H](OS(=O)(=O)O)[C@H](O[C@H]5[C@H](O)[C@@H](NS(=O)(=O)O)[C@@H](O[C@H]6[C@H](O)[C@@H](OS(=O)(=O)O)[C@H](O[C@H]7[C@H](O)C(NS(=O)(=O)O)[C@@H]8OC[C@H]7O8)O[C@H]6C(=O)O)O[C@@H]5COS(=O)(=O)O)O[C@H]4C(=O)O)O[C@@H]3COS(=O)(=O)O)O[C@@H]2C(=O)O)O[C@H](COS(=O)(=O)O)[C@@H](O[C@@H]2OC(C(=O)O)=C[C@H](O)[C@H]2O)[C@@H]1O (some centres unmarked) [ΔIIaIIsIsIs^1,6-anhydro]",high affinity for ATIII,0 nM,50 nM,170 nM,340 nM,560 nM,440 nM,370 nM,300 nM,60 nM,30 nM,10 nM,0 nM,50 nM,100 nM,210 nM,320 nM,300 nM,370 nM,250 nM,"plasma concentration [1, 21]: 50 nM; plasma concentration [1, 22]: 30 nM; plasma concentration [1, 23]: 10 nM; plasma concentration [1, 24]: 0 nM; plasma concentration [1, 25]: 60 nM; plasma concentration [1, 26]: 170 nM; plasma concentration [1, 27]: 240 nM; plasma concentration [1, 28]: 340 nM; plasma concentration [1, 29]: 460 nM; plasma concentration [1, 30]: 380 nM; plasma concentration [1, 31]: 300 nM; plasma concentration [1, 32]: 50 nM; plasma concentration [1, 33]: 40 nM; plasma concentration [1, 34]: 10 nM"
CC(=O)NC1C(OC2C(C(=O)O)OC(OC3C(COS(=O)(=O)O)OC(OC4C(C(=O)O)OC(OC5C(COS(=O)(=O)O)OC(O)C(NS(=O)(=O)O)C5O)C(OS(=O)(=O)O)C4O)C(NS(=O)(=O)O)C3OS(=O)(=O)O)C(O)C2O)OC(COS(=O)(=O)O)C(OC2OC(C(=O)O)C(OC3OC(COS(=O)(=O)O)C(OC4OC(C(=O)O)=CC(O)C4OS(=O)(=O)O)C(O)C3NS(=O)(=O)O)C(O)C2O)C1O (centres unmarked) [ΔIsIIaIIsIs],high affinity for ATIII,0 nM,10 nM,70 nM,160 nM,330 nM,270 nM,220 nM,180 nM,40 nM,20 nM,0 nM,0 nM,30 nM,60 nM,110 nM,200 nM,180 nM,230 nM,150 nM,"plasma concentration [1, 21]: 30 nM; plasma concentration [1, 22]: 20 nM; plasma concentration [1, 23]: 0 nM; plasma concentration [1, 24]: 0 nM; plasma concentration [1, 25]: 20 nM; plasma concentration [1, 26]: 90 nM; plasma concentration [1, 27]: 130 nM; plasma concentration [1, 28]: 190 nM; plasma concentration [1, 29]: 280 nM; plasma concentration [1, 30]: 230 nM; plasma concentration [1, 31]: 190 nM; plasma concentration [1, 32]: 30 nM; plasma concentration [1, 33]: 20 nM; plasma concentration [1, 34]: 0 nM"
